Values joined by “and” are separate entries in the source; they are usually repeats but may differ in a detail not shown here. Equal entries are not always repeated. Structures can show the parent of a compound that is named as a salt.
Key:
[1] = system: neuro-2a (mouse neuroblastoma cells); assay: Action on neuro-2a: proportion of cells containing outgrown neurites; type: cell-based; settings: mean ± S.D.
How it was run: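 Read-out is the percentage of neurite-bearing cells (neurite ≥2× long cell diameter), counted microscopically over more than 200 cells per well. Before fixation and staining, neuro-2a cells (1,000/well, DMEM + 10% FCS) were cultured for one day at 37 °C; up to six compound concentrations, three runs each.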

[2] = system: mice; assay: Acute toxicity on mice; type: in vivo; settings: 24 hours after administration
Procedure: (§1) The acute toxicity of the compounds of the invention was examined by the following method.
(§2) Male ddy-strain 5-week old mice, 4-6- per group, were used as experimental animals. Each of the compounds was intraperitoneally (i.p.), and the toxicity of the compound was assessed 24 hours after the administration.

[3] = system: NS-20Y (mouse neuroblastoma cells); assay: Activity on NS-20Y cells: appearance of neurites; type: cell-based
How it was run: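 Mouse neuroblastoma NS-20Y cells were grown in polyornithine-coated dishes in DMEM with 10 % FCS, 100 units/ml penicillin G sodium and 100 micrograms/ml streptomycin sulfate, at 37° C under 5 % carbon dioxide, and exposed to compound. Cells were fixed with 4 % glutaraldehyde, stained with 0.05 % methylene blue, and the fraction bearing neurites at least twice the cell's long diameter was counted microscopically.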

[4] = Acute toxicity on mice; type: in vivo; settings: mouse, in vivo, ip, 24 hours after administration; read-out: Estimated LD50
Procedure: as §1, §2

For COCC(=O)N(C)c1ccnc(N2CCC(c3ccccc3)CC2)n1.Cc1ccc(S(=O)(=O)O)cc1 [Compound 154-2], the “Number of cells having neurites with a length at least two times the diameter of each cell/total number of cells” value (“Number … of each cell/total number of cells” for short) ([1]; 0.03 mM) was 3.9 ± 0.6%, the “Number … of each cell/total number of cells” value ([1]; 0.1 mM) was 8.9 ± 2.4% and the “Estimated LD50” value [2] was 500-1000 mg/kg, i.p.
In the case of CN(C(=O)c1ccccc1)c1ccnc(N2CCC(c3ccccc3)CC2)n1 [Compound 169], the “Number … of each cell/total number of cells” value ([1]; 0.1 mM) is reported as 34.1 ± 5.7%, the “Number … of each cell/total number of cells” value ([1]; 0.3 mM) is reported as 16.6 ± 5.2% and the “Estimated LD50” value [2] is reported as > 1000 mg/kg, i.p.
In the case of CN(C(=O)c1ccccc1)c1ccnc(N2CCC(c3ccccc3)CC2)n1 [Compound 170, 4-(N-methylbenzamino)-2-(4-phenylpiperidino)pyrimidine hydrochloride], the “Number … of each cell/total number of cells” value ([1]; 0.1 mM, hydrochloride) is reported as 33.5 ± 2.4%, the “Number … of each cell/total number of cells” value ([1]; 0.3 mM, hydrochloride) is reported as 31.0 ± 4.6% and the “Estimated LD50” value [2] is reported as > 1000 mg/kg, i.p.
With CN(C(=O)c1ccc(Cl)cc1Cl)c1ccnc(N2CCC(c3ccccc3)CC2)n1.Cc1ccc(S(=O)(=O)O)cc1 [Compound 171-11] the “Number … of each cell/total number of cells” value ([1]; 0.03 mM) was 5.9 ± 0.9%, the “Number … of each cell/total number of cells” value ([1]; 0.1 mM) was 36.8 ± 7.1% and 22.1 ± 2.3% and the “Number … of each cell/total number of cells” value ([1]; 1 mM) was 31.7 ± 5.9%. The “Estimated LD50” value [2] was > 1000 mg/kg, i.p, the “Number of cells in which neurites appeared/total number of cells” value ([3]; 24 hours, 0.3 mM) was 5/50 and the “Number of cells in which neurites appeared/total number of cells” value ([3]; 48 hours, 0.1 mM) was 2/50.
In the case of Cc1cnc(N2CCC(c3ccccc3)CC2)nc1N(C)C(=O)c1ccccc1 [Compound 424], the “Number … of each cell/total number of cells” value ([1]; 0.03 mM) is reported as 4.5 ± 1.4%, the “Number … of each cell/total number of cells” value ([1]; 0.1 mM) is reported as 7.6 ± 1.3% and the LD50 at 24 h [4] is reported as > 1000 mg/kg. For the same compound, the “Number of cells in which neurites appeared/total number of cells” value ([3]; 24 hours, 0.4 mM) was 16/50 and the “Number of cells in which neurites appeared/total number of cells” value ([3]; 48 hours, 0.4 mM) was 3/50.
With CN(C(=O)c1ccccc1)c1nccc(N2CCCCC2)n1 [Compound 604] the “Number … of each cell/total number of cells” value ([1]; 0.1 mM) was 18.7 ± 4.1%, the “Number … of each cell/total number of cells” value ([1]; 0.3 mM) was 24.6 ± 2.9% and the LD50 at 24 h [4] was < 500 mg/kg. For the same compound, the “Number of cells in which neurites appeared/total number of cells” value ([3]; 24 hours, 0.02 mM) was 6/50, the “Number of cells in which neurites appeared/total number of cells” value ([3]; 24 hours, 0.4 mM) was 7/50 and the “Number of cells in which neurites appeared/total number of cells” value ([3]; 48 hours, 0.02 mM) was 2/50.
With CC1CCN(c2ccnc(N(C)C(=O)c3ccccc3)n2)CC1 [Compound 612] the “Number … of each cell/total number of cells” value ([1]; 0.01 mM) was 13.8 ± 1.5%, the “Number … of each cell/total number of cells” value ([1]; 0.03 mM) was 19.1 ± 3.0% and the “Number … of each cell/total number of cells” value ([1]; 0.1 mM) was 19.4 ± 3.9%. For the same compound, the “Number … of each cell/total number of cells” value ([1]; 0.3 mM) was 22.4 ± 2.4%, the LD50 at 24 h [4] was 500 to 1000 mg/kg and the “Number of cells in which neurites appeared/total number of cells” value ([3]; 24 hours, 0.1 mM) was 2/50. The “Number of cells in which neurites appeared/total number of cells” value ([3]; 48 hours, 0.1 mM) was 2/50.
For CN(C(=O)c1ccccc1)c1nccc(N2CCC(c3ccccc3)CC2)n1 [Compound 628], the “Number … of each cell/total number of cells” value ([1]; 0.03 mM) was 10.2 ± 1.3%, the “Number … of each cell/total number of cells” value ([1]; 0.1 mM) was 13.4 ± 3.2% and the “Number … of each cell/total number of cells” value ([1]; 0.3 mM) was 12.6 ± 3.2%. The “Number … of each cell/total number of cells” value ([1]; 1 mM) was 10.0 ± 3.9%, the LD50 at 24 h [4] was 500 to 1000 mg/kg and the “Number of cells in which neurites appeared/total number of cells” value ([3]; 24 hours, 0.1 mM) was 9/50. For the same compound, the “Number of cells in which neurites appeared/total number of cells” value ([3]; 48 hours, 0.1 mM) was 3/50.
In the case of O=C(c1ccccc1)N(Cc1ccccc1)c1nccc(N2CCC(c3ccccc3)CC2)n1 [Compound 660], the “Number … of each cell/total number of cells” value ([1]; 0.03 mM) is reported as 13.5 ± 1.3%, the “Number … of each cell/total number of cells” value ([1]; 0.1 mM) is reported as 9.1 ± 3.7% and the LD50 at 24 h [4] is reported as 500 to 1000 mg/kg. The “Number of cells in which neurites appeared/total number of cells” value ([3]; 24 hours, 0.1 mM) was 5/50 and the “Number of cells in which neurites appeared/total number of cells” value ([3]; 48 hours, 0.1 mM) was 4/50.
In the case of CN(C(=O)c1ccco1)c1nccc(N2CCC(c3ccccc3)CC2)n1 [Compound 684], the “Number … of each cell/total number of cells” value ([1]; 0.01 mM) is reported as 3.8 ± 0.5%, the “Number … of each cell/total number of cells” value ([1]; 0.03 mM) is reported as 5.8 ± 2.0% and the “Number … of each cell/total number of cells” value ([1]; 0.1 mM) is reported as 16.4 ± 2.8%. The LD50 at 24 h [4] was 500 to 1000 mg/kg, the “Number of cells in which neurites appeared/total number of cells” value ([3]; 24 hours, 0.1 mM) was 2.50 and the “Number of cells in which neurites appeared/total number of cells” value ([3]; 48 hours, 0.05 mM) was 2/50.
For COC(=O)c1cnc(NC(C)C)nc1C.O=C(O)/C=C\C(=O)O [Compound 804, 2-isopropylamino-4-methyl-5-methoxycarbonylpyrimidine maleate], the “Number … of each cell/total number of cells” value ([1]; 0.3 mM) was 9.4 ± 1.3%, the “Number … of each cell/total number of cells” value ([1]; 0.5 mM) was 13.0 ± 2.1% and the “Number … of each cell/total number of cells” value ([1]; 1 mM) was 26.1 ± 6.8%. The “Number … of each cell/total number of cells” value ([1]; 2 mM) was 18.8 ± 3.1%, the LD50 at 24 h [4] was 500 to 1000 mg/kg and the “Number of cells in which neurites appeared/total number of cells” value ([3]; 24 hours, 0.25 mM) was 8/55. The “Number of cells in which neurites appeared/total number of cells” value ([3]; 24 hours, 0.5 mM) was 7/50, the “Number of cells in which neurites appeared/total number of cells” value ([3]; 48 hours, 0.25 mM) was 8/50 and the “Number of cells in which neurites appeared/total number of cells” value ([3]; 48 hours, 0.5 mM) was 25/51.
For CNc1cc(C)nc(N2CCC(c3ccccc3)CC2)n1 [Compound 1090], the “Number … of each cell/total number of cells” value ([1]; 0.01 mM) was 3.7 ± 1.0%, the “Number … of each cell/total number of cells” value ([1]; 0.03 mM) was 5.7 ± 0.6% and the “Number … of each cell/total number of cells” value ([1]; 0.1 mM) was 12.2 ± 2.5%. For the same compound, the “Number … of each cell/total number of cells” value ([1]; 0.3 mM) was 10.3 ± 0.9%, the LD50 at 24 h [4] was 500 to 1000 mg/kg and the “Number of cells in which neurites appeared/total number of cells” value ([3]; 24 hours, 0.02 mM) was 4/50. The “Number of cells in which neurites appeared/total number of cells” value ([3]; 24 hours, 0.1 mM) was 21/50 and the “Number of cells in which neurites appeared/total number of cells” value ([3]; 48 hours, 0.1 mM) was 3/50.
In the case of CN1C(=O)Cc2cnc(N3CCN(C(c4ccccc4)c4ccccn4)CC3)nc21 (stereo not shown) [Compound 3192], the “Number … of each cell/total number of cells” value ([1]; 0.1 mM) is reported as 9.7 ± 1.1%, the “Number … of each cell/total number of cells” value ([1]; 0.3 mM) is reported as 3.7 ± 3.2% and the LD50 at 24 h [4] is reported as 500 to 1000 mg/kg. The “Number of cells in which neurites appeared/total number of cells” value ([3]; 24 hours, 0.02 mM) was 6/50 and the “Number of cells in which neurites appeared/total number of cells” value ([3]; 48 hours, 0.02 mM) was 4/50.

Reference: patent publication US5147876A, “2,6-di,2,4,6-, 2,5,6-tri and 2,4,5,6-tetra-substituted pyrimidines, their pharmaceutically acceptable salts, pharmaceutical compositions containing same and their use in the treatment of neurological diseases” (Mitsui Petrochemical Industries, Ltd., priority 1988, dated 1992)
